# According to US11884647B2, “Compounds and methods for targeting pathogenic blood vessels” (THE REGENTS OF THE UNIVERSITY OF CALIFORNIA, priority 2019, dated 2024):
# Tested on: tumor endothelial cells (LL/2 lung cancer tumor)
# Test: Lung LL2 ex vivo model of tumor angiogenesis
# Format: cell-based, mouse
# Conditions: Lung LL2 ex vivo; Conc. 20 μm; 48 hrs
# Description: This example describes a procedure to prepare a primary tumor angiogenesis model for assessing the efficacy of anti-cancer candidate agents.
# 1. The day before the experiment, spray all necessary tools with 70% ethanol and sterilize them under UV light overnight, including blade, dissecting and micro-dissecting scissors and […]. Place 24-well dishes at 4° C. to pre-chill plates and thaw Matrigel 24 hours before tumor dissection.
# 2. Spray 70% ethanol on working bench. Prepare two sterile petri dishes with 10 mL sterile PBS. Steps 3 and 4 are for mouse tumor models. For fresh human tumor, directly go to step 5.
# 3. Euthanize the tumor-bearing mice. Spray 70% ethanol on the mouse and remove the tumor using sterilized dissecting tools (avoid the fur). Rinse the tumor in petri dish with sterile PBS to remove ethanol and fur. Transfer the tumor to a new petri dish with PBS for dissection. Place the dish on ice.
# 4. Using pre-chilled sterile pipet tips to seed regular Matrigel in 24 well plates on ice. Matrigel (30 μL) is dropped in the middle of each well without touching the edge of the well (avoid introducing bubbles if possible).
# 5. Cut the tumor in halves using the sterile blade. Identify and isolate healthy tumor tissue that is not necrotic and is within the tumor capsule. Cut the healthy tumor tissue into small pieces. For instance, a suitable size for the tumor tissue is 0.5 mm (H)×0.5 mm (L)×0.3 mm (D) with a total volume of 0.075 mm^3.
# 6. Gently transfer and embed each tumor piece in the Matrigel drop in the 24-well plate. Place the embedded piece in the bottom and middle of each Matrigel drop. Keep the plate on ice all the time.
# 7. After seeding the tumor pieces, plates are incubated in a 37° C. cell culture incubator without medium for 10 minutes in order for the Matrigel to solidify.
# 8. Endothelial Growth Medium (0.5 mL) is added to each well and incubated at 37° C. with 5% CO2. Wait until the new endothelial cells have grown out of the tumor or are larger than 3 mm in diameter until treatment. This usually takes 4 days for the LL2 Lewis lung cancer model and 7 days for the CT26 colon cancer model. For human tumor models, the growth time is typically 2-3 weeks, depending on the tumor type. Media is changed every 4 days during prolonged culture. Typically, when the tumor tissue grows to 2 mm in diameter, it is good for drug testing. A size of about 3 mm in diameter can make visualization easier.
# 9. When the assay is ready to be analyzed for cell death (e.g., 48 hours after drug addition), prepare the dye mixture by mixing 6 μL of green dye to stain live cells (5 mg/mL Fluorescein diacetate or FDA in DMSO) with 30 μL of red dye (2.5 mg/mL Propidium iodide or PI in PBS) to stain dead cells in an Eppendorf tube. The FDA dye needs to be stored frozen in a −20° C. freezer because it has a labile ester bond.
# 10. Add 1 μL of the dye mixture to each well of the 24-well dish. It is usually performed one 24-well dish at a time given the amount of time needed to take pictures (the green dye is not as stable in the cells in the long term).
# 11. Gently rock the dish a few times to mix the dye with the media in the wells and incubate the dish at 37° C. for 10 min (too long incubation can make the green signal too intense).
# 12. Wash each well with 0.5 mL of sterile PBS and then add 0.5 mL of phenol red free SFM to each well. Alternatively 0.5 mL of regular Endothelial Cell Growth Media can be added to each well if this well needs to be continuously maintained after the experiment.
# 13. Look through all wells on an inverted microscope using the 2× objective lens to observe morphological changes.
# 14. Taking pictures in the red and green channels would allow not only the recording of the result but also more accurate quantitation of the result. To take pictures for all the wells, first pick a well that has robust red and green signals. […]
row,Compound,48 hrs (morphology observations after 48 hours)
1,3-((4-(heptyloxy)phenyl)sulfonyl)-4-(4- (4-(2-mPEGoxyethyl)piperazin-1- yl)piperidin-1-yl)-6- (methylsulfinyl)quinoline [compound 280],*** (100% of endothelial cells vesicularize in cell shape)

# Same assay, conditions: Lung LL2 ex vivo; Conc. 20 μm; (24 hrs)
Compound,Cell death (24 hrs),Morphology observations (24 hrs)
"CCCCCCCCCCOc1ccc(S(=O)(=O)c2cnc3ccc([S+](C)[O-])cc3c2N2CCC(N3CCC(N4CCCN(C)CC4)CC3)CC2)cc1 (centres unmarked) [compound 287, 3-((4-(decyloxy)phenyl)sulfonyl)-4-(4-(4-methyl-1,4-diazepan-1-yl)-[1,4′-bipiperidin]-1′-yl)-6-(methylsulfinyl)quinoline]",40%,* (50% or less of cells vesicularize in cell shape)

# Same assay, conditions: Lung LL2 ex vivo; Conc. 20 μm; drug treatment two days
row,Compound,Cell death
1,"O=S(=O)(c1ccc(OC(F)(F)F)cc1)c1cnc2ccc(OC(F)(F)F)cc2c1N1CCC(N2CCCCC2)CC1 [compound 120, 4-([1,4′-bipiperidin]-1′-yl)-6-(trifluoromethoxy)-3-((4-(trifluoromethoxy)phenyl)sulfonyl)quinoline]",5%
2,3-((4-(heptyloxy)phenyl)sulfonyl)-4-(4- (4-(2-mPEGoxyethyl)piperazin-1- yl)piperidin-1-yl)-6- (methylsulfinyl)quinoline [compound 280],100%

# Same assay, conditions: Lung LL2 ex vivo; Conc. 40 μm; drug treatment two days
row,Compound,Cell death
1,"CCCCOc1ccc(S(=O)(=O)c2cnc3ccc(C(=O)NCCO)cc3c2N2CCCN(C)CC2)cc1 [compound 200, 3-((4-butoxyphenyl)sulfonyl)-N-(2-hydroxyethyl)-4-(4-methyl-1,4-diazepan-1-yl)quinoline-6-carboxamide]",30%
2,"CCCCOc1ccc(S(=O)(=O)c2cnc3ccc(C(=O)OCC)cc3c2N2CCN(c3ccc(F)cc3)CC2)cc1 [compound 213, ethyl 3-((4-butoxyphenyl)sulfonyl)-4-(4-(4-fluorophenyl)piperazin-1-yl)quinoline-6-carboxylate]",30%
3,"CCc1ccc(S(=O)(=O)c2cnc3ccc(OC)cc3c2NN2CCN(C)CC2)cc1 [compound 83, 3-((4-ethylphenyl)sulfonyl)-6-methoxy-N-(4-methylpiperazin-1-yl)quinolin-4-amine]",20%
4,"CNC(=O)c1ccc2ncc(S(=O)(=O)c3ccc(OC)cc3)c(N3CCC(N4CCCCC4)CC3)c2c1 [compound 143, 4-([1,4′-bipiperidin]-1′-yl)-3-((4-methoxyphenyl)sulfonyl)-N-methylquinoline-6-carboxamide]",40%
5,"CCCCOc1ccc(S(=O)(=O)c2cnc3ccc(SC)cc3c2N2CCC(N3CCN(CCO)CC3)CC2)cc1 [compound 230, 2-(4-(1-(3-((4-butoxyphenyl)sulfonyl)-6-(methylthio)quinolin-4-yl)piperidin-4-yl)piperazin-1-yl)ethan-1-ol]",100%
6,"CCCCOc1ccc(S(=O)(=O)c2cnc3ccc(SC)cc3c2N2CCCN(C3CCS(=O)(=O)CC3)CC2)cc1 [compound 359, 4-(4-(3-((4-butoxyphenyl)sulfonyl)-6-(methylthio)quinolin-4-yl)-1,4-diazepan-1-yl)tetrahydro-2H-thiopyran 1,1-dioxide]",20%

# Same assay, conditions: Mus musculus, Endothelial cell, 48 h, read-out: Cell death
Compound,cytotoxicity at 40 µM,cytotoxicity at 20 µM,cytotoxicity at 10 µM
"CCOC(=O)c1ccc(N2CCN(c3c(S(=O)(=O)c4ccc(OC)cc4)cnc4cc(OC)c(OC)cc34)CC2)cc1 [compound 317, ethyl 4-(4-(6,7-dimethoxy-3-((4-methoxyphenyl)sulfonyl)quinolin-4-yl)piperazin-1-yl)benzoate]",30%,,
"CCCCOc1ccc(S(=O)(=O)c2cnc3ccc(C(=O)OCC)cc3c2N2CCCN(CCN3CCCCC3)CC2)cc1 [compound 181, ethyl 3-((4-butoxyphenyl)sulfonyl)-4-(4-(2-(piperidin-1-yl)ethyl)-1,4-diazepan-1-yl)quinoline-6-carboxylate]",100%,,
"CCCCCCCCCCOc1ccc(S(=O)(=O)c2cnc3ccc([S+](C)[O-])cc3c2N2CCC(N3CCC(O)(c4ccccc4)CC3)CC2)cc1 (centres unmarked) [compound 270, 1′-(3-((4-(decyloxy)phenyl)sulfonyl)-6-(methylsulfinyl)quinolin-4-yl)-4-phenyl-[1,4′-bipiperidin]-4-ol]",,50%,
"CCOC(=O)c1ccc2ncc(S(=O)(=O)c3ccc(OC)cc3)c(N3CCC(N4CCCC(O)C4)CC3)c2c1 (centres unmarked) [compound 174, ethyl 4-(3-hydroxy-[1,4′-bipiperidin]-1′-yl)-3-((4-methoxyphenyl)sulfonyl)quinoline-6-carboxylate]",30%,,
"CCc1ccc(S(=O)(=O)c2cnc3ccc(OC(F)(F)F)cc3c2NN2CCOCC2)cc1 [compound 126, N-(3-((4-ethylphenyl)sulfonyl)-6-(trifluoromethoxy)quinolin-4-yl)morpholin-4-amine]",,10%,
"CCCCCCCOc1ccc(S(=O)(=O)c2cnc3ccc(SC)cc3c2N2CCC(N3CCC(N4CCCCC4)CC3)CC2)cc1 [compound 251, 4-([1,4′:1′,4″-terpiperidin]-1″-yl)-3-((4-(heptyloxy)phenyl)sulfonyl)-6-(methylthio)quinoline]",,60%,
"CCCCOc1ccc(S(=O)(=O)c2cnc3ccc(OC(F)(F)F)cc3c2N2CCS(=O)(=O)CC2)cc1 [compound 198, 4-(3-((4-butoxyphenyl)sulfonyl)-6-(trifluoromethoxy)quinolin-4-yl)thiomorpholine 1,1-dioxide]",30%,,
"CCCCCCCCCCOc1ccc(S(=O)(=O)c2cnc3ccc([S+](C)[O-])cc3c2N2CCC(N3CCC(N4CCN(C)CC4)CC3)CC2)cc1 (centres unmarked) [compound 285, 3-((4-(decyloxy)phenyl)sulfonyl)-4-(4-(4-methylpiperazin-1-yl)-[1,4′-bipiperidin]-1′-yl)-6-(methylsulfinyl)quinoline]",,,60%
"CCOC(=O)c1ccc2ncc(S(=O)(=O)c3ccc(OC)cc3)c(-n3ccnc3)c2c1 [compound 141, ethyl 4-(1H-imidazol-1-yl)-3-((4-methoxyphenyl)sulfonyl)quinoline-6-carboxylate]",,90%,
"CCCCOc1ccc(S(=O)(=O)c2cnc3ccc([S+](C)[O-])cc3c2N2CCC(N3CCN(c4ccc(F)cc4)CC3)CC2)cc1 (centres unmarked) [compound 239, 3-((4-butoxyphenyl)sulfonyl)-4-(4-(4-(4-fluorophenyl)piperazin-1-yl)piperidin-1-yl)-6-(methylsulfinyl)quinoline]",40%,,
"CCCCOc1ccc(S(=O)(=O)c2cnc3ccc(SC)cc3c2N2CCC(N3CCC(O)CC3)CC2)cc1 [compound 162, 1′-(3-((4-butoxyphenyl)sulfonyl)-6-(methylthio)quinolin-4-yl)-[1,4′-bipiperidin]-4-ol]",70%,,
"CCCCCCCOc1ccc(S(=O)(=O)c2cnc3ccc([S+](C)[O-])cc3c2N2CCN(CC3CCN(Cc4ccccc4)CC3)CC2)cc1 (centres unmarked) [compound 279, 4-(4-((1-benzylpiperidin-4-yl)methyl)piperazin-1-yl)-3-((4-(heptyloxy)phenyl)sulfonyl)-6-(methylsulfinyl)quinoline]",,100%,
"CCCCCCCOc1ccc(S(=O)(=O)c2cnc3ccc(SC)cc3c2N2CCC(N3CCCN(C)CC3)CC2)cc1 [compound 249, 3-((4-(heptyloxy)phenyl)sulfonyl)-4-(4-(4-methyl-1,4-diazepan-1-yl)piperidin-1-yl)-6-(methylthio)quinoline]",,60%,
"CCc1ccc(S(=O)(=O)c2cnc3ccc(OC(F)(F)F)cc3c2-n2cccc2)cc1 [compound 108, 3-((4-ethylphenyl)sulfonyl)-4-(1H-pyrrol-1-yl)-6-(trifluoromethoxy)quinoline]",,0%,
"CCCCOc1ccc(S(=O)(=O)c2cnc3ccc([S+](C)[O-])cc3c2N2CCC(N3CCC(O)CC3)CC2)cc1 (centres unmarked) [compound 168, 1′-(3-((4-butoxyphenyl)sulfonyl)-6-(methylsulfinyl)quinolin-4-yl)-[1,4′-bipiperidin]-4-ol]",,10%,
